Values belong to the molecule of their own block, whether it stands above or below them.
Key:
[1] = target: ALK tyrosine kinase receptor (Homo sapiens, UniProt Q9UM73); settings: at 10 µM
[2] = target: T1, Cyclin-G-associated kinase (Homo sapiens) (UniProt O14976); experiment: Selectivity interaction (Ambit KINOMEscan and KiNATiv profiling in Jurkat cells) EUB0000090b GAK; format: cell-based; settings: at 1 µM
T1 sequence (whole entry): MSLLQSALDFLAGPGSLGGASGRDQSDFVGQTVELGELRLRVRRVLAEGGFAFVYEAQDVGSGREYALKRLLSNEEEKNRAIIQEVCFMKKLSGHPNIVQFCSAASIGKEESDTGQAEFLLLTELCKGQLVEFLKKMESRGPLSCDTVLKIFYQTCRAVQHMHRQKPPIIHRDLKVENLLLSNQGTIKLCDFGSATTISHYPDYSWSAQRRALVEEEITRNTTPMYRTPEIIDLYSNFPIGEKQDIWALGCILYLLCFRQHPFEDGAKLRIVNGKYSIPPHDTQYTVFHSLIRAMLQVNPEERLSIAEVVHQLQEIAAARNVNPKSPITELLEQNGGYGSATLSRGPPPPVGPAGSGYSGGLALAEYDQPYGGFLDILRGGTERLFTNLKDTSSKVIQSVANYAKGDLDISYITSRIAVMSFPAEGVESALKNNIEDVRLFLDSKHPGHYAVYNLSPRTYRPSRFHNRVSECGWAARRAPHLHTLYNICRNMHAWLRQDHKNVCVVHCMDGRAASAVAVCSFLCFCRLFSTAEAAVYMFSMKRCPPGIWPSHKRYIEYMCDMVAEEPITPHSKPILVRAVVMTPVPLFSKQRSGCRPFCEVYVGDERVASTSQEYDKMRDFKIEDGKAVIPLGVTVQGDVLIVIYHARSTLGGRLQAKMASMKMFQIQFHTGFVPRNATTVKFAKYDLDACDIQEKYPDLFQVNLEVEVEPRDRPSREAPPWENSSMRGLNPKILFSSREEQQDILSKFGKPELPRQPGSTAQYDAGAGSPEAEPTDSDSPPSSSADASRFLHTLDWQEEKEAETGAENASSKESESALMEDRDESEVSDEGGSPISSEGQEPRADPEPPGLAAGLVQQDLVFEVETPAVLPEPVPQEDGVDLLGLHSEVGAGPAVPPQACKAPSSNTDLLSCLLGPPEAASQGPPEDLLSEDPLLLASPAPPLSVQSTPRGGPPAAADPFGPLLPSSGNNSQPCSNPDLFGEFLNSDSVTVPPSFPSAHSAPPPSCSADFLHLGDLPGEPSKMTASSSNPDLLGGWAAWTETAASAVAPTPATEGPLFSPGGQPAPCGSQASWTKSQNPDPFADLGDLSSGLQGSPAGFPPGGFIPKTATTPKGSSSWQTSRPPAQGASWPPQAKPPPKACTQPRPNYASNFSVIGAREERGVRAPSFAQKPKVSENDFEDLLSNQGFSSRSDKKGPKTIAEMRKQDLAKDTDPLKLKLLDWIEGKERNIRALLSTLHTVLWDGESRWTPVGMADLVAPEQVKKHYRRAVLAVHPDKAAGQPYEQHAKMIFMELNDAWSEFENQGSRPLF

[3] = target: Tyrosine-protein kinase ABL1 (Homo sapiens, UniProt P00519); experiment: Selectivity interaction (KinomeScan (DiscoverX)) EUB0000655a ABL1; settings: at 10 µM
[4] = target: T2, NUAK family SNF1-like kinase 1 (Homo sapiens) (UniProt O60285); experiment: Selectivity interaction (KinomeScan (DiscoverX)) EUB0001619a NUAK1; settings: at 1 µM
T2 sequence (whole entry): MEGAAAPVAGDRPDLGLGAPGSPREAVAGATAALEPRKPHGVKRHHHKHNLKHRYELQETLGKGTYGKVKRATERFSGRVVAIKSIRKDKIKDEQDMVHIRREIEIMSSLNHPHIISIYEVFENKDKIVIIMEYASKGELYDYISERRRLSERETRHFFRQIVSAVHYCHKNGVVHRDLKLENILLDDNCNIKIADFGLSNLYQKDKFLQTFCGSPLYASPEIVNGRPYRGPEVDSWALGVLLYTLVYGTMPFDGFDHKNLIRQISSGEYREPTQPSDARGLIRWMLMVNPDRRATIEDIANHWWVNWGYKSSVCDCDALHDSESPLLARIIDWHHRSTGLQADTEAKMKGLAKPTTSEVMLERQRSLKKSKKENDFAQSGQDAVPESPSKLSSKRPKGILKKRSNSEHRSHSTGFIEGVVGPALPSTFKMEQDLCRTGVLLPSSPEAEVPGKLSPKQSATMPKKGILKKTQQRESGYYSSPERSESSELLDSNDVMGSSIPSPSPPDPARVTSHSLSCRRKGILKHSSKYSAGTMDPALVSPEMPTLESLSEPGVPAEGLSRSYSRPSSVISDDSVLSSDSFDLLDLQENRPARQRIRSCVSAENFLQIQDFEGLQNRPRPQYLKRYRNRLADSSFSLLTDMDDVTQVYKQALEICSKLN

[5] = target: Mitogen-activated protein kinase kinase kinase kinase 5 (Homo sapiens) (UniProt Q9Y4K4); experiment: Selectivity interaction (Kinase panel (KiNativ target engagement assay in Jurkat cells)) EUB0001635a MAP4K5; format: cell-based; settings: Selectivity number of off-targets 0.0, Selectivity number of targets 233.0, Source Knowledge https://www.sciencedirect.com/science/article/pii/S2451945619300674?via%3Dihub, at 1 µM
[6] = target: T3, Aurora kinase C (Homo sapiens) (UniProt Q9UQB9); experiment: Selectivity interaction (Kinase panel (Invitrogen)) EUB0000639a AURKC; settings: at 200 nM
T3 sequence (whole entry): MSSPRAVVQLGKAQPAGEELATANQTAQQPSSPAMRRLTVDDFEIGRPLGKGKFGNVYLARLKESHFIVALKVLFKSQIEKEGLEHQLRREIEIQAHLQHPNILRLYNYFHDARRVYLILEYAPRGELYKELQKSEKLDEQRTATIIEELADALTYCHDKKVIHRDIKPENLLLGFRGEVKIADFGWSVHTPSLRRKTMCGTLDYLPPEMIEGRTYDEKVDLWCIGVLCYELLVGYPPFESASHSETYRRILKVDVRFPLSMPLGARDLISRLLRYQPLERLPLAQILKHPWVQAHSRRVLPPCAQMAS

[7] = target: Serine/threonine-protein kinase MARK1 (Homo sapiens) (UniProt Q9P0L2); experiment: Selectivity interaction (ProQinase) EUB0000171b MARK1
[8] = target: Homeodomain-interacting protein kinase 3 (Homo sapiens, UniProt Q9H422); experiment: Selectivity interaction (KinomeScan (DiscoverX)) EUB0000092b HIPK3; settings: at 10 µM

Sequence of Serine/threonine-protein kinase MARK1 (Homo sapiens) (Q9P0L2 whole entry, looked up): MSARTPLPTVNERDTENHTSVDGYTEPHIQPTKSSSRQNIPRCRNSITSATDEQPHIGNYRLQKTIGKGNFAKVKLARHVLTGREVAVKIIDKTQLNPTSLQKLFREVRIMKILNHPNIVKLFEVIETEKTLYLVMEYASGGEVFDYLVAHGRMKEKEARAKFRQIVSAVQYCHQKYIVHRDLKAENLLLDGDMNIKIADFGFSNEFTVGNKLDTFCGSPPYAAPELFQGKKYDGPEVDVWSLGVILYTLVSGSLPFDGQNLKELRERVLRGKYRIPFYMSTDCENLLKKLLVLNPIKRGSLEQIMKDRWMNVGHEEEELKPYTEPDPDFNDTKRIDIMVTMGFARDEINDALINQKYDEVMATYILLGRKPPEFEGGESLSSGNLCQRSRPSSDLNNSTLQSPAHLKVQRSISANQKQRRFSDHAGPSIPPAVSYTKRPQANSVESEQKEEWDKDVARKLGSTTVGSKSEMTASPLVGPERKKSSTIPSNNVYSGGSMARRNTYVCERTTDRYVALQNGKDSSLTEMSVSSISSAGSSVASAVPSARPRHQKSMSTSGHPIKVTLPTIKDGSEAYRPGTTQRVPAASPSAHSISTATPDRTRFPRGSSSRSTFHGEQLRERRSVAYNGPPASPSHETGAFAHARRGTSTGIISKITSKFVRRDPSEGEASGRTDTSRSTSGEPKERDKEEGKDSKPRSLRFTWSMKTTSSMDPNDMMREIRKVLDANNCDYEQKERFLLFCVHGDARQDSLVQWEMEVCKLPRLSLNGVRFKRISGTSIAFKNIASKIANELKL
Sequence of Mitogen-activated protein kinase kinase kinase kinase 5 (Homo sapiens) (Q9Y4K4 whole entry, looked up): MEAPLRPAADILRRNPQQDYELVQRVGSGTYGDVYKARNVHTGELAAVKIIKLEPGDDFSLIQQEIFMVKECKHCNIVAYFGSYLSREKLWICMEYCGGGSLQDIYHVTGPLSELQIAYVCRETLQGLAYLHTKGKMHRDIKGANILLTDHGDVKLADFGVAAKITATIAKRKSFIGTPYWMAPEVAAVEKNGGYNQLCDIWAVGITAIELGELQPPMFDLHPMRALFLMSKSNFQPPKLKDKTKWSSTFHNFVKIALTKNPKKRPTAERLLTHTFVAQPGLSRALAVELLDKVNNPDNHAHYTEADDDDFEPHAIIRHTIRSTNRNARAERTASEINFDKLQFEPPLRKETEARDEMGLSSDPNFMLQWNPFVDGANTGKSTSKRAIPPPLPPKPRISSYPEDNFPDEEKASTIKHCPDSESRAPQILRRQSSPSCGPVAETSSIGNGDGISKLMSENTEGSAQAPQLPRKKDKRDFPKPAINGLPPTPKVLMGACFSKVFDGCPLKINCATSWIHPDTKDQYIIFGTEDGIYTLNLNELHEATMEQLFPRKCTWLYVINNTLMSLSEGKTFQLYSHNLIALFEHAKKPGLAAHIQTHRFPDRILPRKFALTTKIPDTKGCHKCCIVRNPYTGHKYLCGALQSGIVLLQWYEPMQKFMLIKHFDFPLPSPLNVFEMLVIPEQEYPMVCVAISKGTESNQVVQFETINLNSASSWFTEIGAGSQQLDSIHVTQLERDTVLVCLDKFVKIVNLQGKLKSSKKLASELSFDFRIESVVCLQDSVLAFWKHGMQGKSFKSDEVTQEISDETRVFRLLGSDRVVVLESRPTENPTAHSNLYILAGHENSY
Sequence of ALK tyrosine kinase receptor (Q9UM73 19-1620 limits assumed): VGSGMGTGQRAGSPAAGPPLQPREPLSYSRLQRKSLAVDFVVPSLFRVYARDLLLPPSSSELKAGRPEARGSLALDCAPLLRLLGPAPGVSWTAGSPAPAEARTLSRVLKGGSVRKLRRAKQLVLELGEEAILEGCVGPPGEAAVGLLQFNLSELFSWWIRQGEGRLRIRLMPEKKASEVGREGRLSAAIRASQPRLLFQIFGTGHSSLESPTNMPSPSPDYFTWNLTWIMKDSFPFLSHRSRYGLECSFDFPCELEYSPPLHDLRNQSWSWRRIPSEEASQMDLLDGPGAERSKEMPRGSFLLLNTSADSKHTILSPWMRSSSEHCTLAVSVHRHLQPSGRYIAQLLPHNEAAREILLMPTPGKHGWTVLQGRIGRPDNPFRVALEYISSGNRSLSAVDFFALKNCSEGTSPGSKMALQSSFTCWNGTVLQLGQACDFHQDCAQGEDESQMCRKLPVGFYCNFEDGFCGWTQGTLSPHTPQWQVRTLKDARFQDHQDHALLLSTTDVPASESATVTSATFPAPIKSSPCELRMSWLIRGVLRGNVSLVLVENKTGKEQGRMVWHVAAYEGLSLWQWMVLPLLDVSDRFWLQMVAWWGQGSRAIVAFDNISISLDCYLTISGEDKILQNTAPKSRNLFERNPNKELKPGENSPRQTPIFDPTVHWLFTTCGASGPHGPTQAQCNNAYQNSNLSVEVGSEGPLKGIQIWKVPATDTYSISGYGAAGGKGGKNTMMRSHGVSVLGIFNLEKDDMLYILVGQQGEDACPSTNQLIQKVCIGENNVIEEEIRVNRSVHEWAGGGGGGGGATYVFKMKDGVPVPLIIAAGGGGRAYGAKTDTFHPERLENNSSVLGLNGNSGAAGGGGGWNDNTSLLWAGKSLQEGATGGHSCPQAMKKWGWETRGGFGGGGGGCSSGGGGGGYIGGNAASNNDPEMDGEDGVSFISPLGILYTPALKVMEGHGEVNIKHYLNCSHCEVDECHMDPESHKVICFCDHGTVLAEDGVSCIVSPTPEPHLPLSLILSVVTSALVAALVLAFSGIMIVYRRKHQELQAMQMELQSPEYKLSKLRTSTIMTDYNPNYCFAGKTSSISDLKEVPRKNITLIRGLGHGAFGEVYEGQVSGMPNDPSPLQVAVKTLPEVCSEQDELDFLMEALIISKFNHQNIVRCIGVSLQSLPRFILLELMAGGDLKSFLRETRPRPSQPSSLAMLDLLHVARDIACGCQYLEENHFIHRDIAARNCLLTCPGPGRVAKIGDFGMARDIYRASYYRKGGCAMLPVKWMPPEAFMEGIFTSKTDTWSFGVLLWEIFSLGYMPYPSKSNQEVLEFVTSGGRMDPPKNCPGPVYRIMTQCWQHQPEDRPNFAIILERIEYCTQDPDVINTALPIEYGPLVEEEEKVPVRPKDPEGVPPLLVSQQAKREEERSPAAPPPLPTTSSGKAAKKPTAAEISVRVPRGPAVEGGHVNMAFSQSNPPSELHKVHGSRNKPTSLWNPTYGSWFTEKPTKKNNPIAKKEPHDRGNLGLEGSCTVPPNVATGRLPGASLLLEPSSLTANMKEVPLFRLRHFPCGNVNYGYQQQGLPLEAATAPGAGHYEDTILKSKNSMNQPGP
Sequence of Tyrosine-protein kinase ABL1 (P00519 whole entry): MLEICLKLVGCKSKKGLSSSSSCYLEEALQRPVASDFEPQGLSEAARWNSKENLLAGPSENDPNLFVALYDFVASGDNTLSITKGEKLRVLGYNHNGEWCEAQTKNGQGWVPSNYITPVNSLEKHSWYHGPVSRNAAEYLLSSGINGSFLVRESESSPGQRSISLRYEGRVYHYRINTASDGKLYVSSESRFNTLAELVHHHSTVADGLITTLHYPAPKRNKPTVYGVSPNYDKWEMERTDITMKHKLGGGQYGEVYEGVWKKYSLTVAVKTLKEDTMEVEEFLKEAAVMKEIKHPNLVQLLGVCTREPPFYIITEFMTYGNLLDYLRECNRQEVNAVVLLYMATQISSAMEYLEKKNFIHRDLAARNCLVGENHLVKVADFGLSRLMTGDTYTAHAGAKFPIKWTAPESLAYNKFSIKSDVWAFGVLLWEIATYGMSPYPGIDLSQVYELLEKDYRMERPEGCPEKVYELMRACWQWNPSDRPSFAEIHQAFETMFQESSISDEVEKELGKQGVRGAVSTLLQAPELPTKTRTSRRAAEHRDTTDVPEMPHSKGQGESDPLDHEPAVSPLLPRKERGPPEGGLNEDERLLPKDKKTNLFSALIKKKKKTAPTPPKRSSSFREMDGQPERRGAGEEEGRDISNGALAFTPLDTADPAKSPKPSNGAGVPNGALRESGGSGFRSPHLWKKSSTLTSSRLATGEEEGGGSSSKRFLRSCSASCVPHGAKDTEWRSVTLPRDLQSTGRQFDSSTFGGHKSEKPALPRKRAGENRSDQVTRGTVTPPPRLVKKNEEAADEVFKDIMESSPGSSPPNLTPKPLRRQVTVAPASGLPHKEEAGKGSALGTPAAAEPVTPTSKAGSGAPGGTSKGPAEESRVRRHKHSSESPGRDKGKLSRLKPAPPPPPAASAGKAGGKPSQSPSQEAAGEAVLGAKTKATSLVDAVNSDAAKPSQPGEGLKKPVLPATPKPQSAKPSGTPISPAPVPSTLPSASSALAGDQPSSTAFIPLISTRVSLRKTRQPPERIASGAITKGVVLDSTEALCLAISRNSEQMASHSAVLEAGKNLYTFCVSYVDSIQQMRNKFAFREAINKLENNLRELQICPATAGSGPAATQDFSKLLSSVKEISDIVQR

% of control [1]: 100%
Compound: CCN(CC)CCCCNc1ncc2cc(-c3cc(OC)cc(OC)c3)c(NC(=O)NC(C)(C)C)nc2n1

Compound: CN(C)C/C=C/C(=O)Nc1ccc(C(=O)N2CCCC(Nc3ncc(Cl)c(-c4c[nH]c5ccccc45)n3)C2)cc1 (centres undefined)
% of control [2]: 93%

Compound: CN(C)CCOc1ccc(-c2nc(-c3ccncc3)c(-c3ccc4c(c3)CC/C4=N\O)[nH]2)cc1
% of control [3]: 6%

Compound: N#Cc1cccc(-c2c[nH]c3ncnc(N4CCOCC4)c23)c1
% of control [4]: 71%

Compound: C=CC(=O)Nc1ccc(C(=O)Nc2[nH]nc3c2CN(C(=O)N[C@H](CN(C)C)c2ccccc2)C3(C)C)cc1
% of engagement [5]: 1.1%

% of inhibition [6]: 2.66%
Compound: CC[C@@H]1[C@H](F)C(=O)N[C@@H]1COc1nccc2cc(C(N)=O)c(OC)cc12 [ZIMLOVISERTIB]

% of control ([7]; at 1 µM): 100% | % of control ([7]; at 5 µM): 88%
Compound: C=CC(=O)Nc1cccc(C(=O)Nc2ccc(Nc3cc(-c4[nH]c(SC)nc4C)ccn3)cc2)c1

Compound: CCC(=O)N1CCN(c2ccc(-n3c(=O)ccc4cnc5ccc(-c6cnc7ccccc7c6)cc5c43)cc2C(F)(F)F)CC1
% of control [8]: 86%
